In US5326907A, “2-aminoethanesulfonic acid derivatives of 3,5-disubstituted-4-hydroxyphenolic thioethers” (G. D. Searle & Co., priority 1992, dated 1994):
Structures can show the parent of a compound that is named as a salt.

Assays:
[1] = system: superoxide generation by FMLP-stimulated human neutrophils; experiment: Human neutrophil superoxide generation (FMLP-stimulated, cytochrome C reduction); format: cell-based; conditions: pH 7.2, 37° C., preincubated 3 minutes, average, read-out: average IC50, inhibition of superoxide generation
Method: The compounds of the invention are evaluated with respect to superoxide modulating activity according to the following assay procedure:
Superoxide generation by formyl-methionyl-leucyl-phenylalanine (FMLP)-stimulated neutrophils was quantitated by the reduction of cytochrome C (Badwey, J. A., Curnutte, J. T. and Karnovsky, M. L., cis-Polyunsaturated fatty acids induce high levels of superoxide production by human neutrophils. J. Biol. Chem. 256:12640-12643, 1981.) To 5 million neutrophils in 2.85 ml of Krebs-Ringer phosphate buffer, pH 7.2, 50 ul of inhibitor (in 10% DMSO/buffer), and 50 ul ferricytochrome C (5 mM, stock) were added and preincubated for 3 minutes at 37° C. Absorption measurements at 550 nm were recorded at start of preincubation. Fifty ul FMLP (6 uM, stock) was added to initiate reaction. A plateau was reached within 3 minutes and this reading minus the initial reading (before addition of FMLP) was used to calculate nanomoles of superoxide generated based on a molar extinction coefficient of 2.1×10^4 cm^-1 mole^-1.
Human neutrophils were isolated from freshly drawn blood of healthy donors. Two ml of 5% dextran (MW 200,000-300,000) in saline was added to 10 ml aliquots of blood, mixed and placed upright for 45 min. at 37° C. Approx. […] The red cell lysing procedure was repeated, the cells suspended in appropriate buffer (depending on assay) and counted.

5-lipoxygenase = target: T1, 5-lipoxygenase (Rattus norvegicus, UniProt P12527); experiment: Inhibition of 5-lipoxygenase, in vitro; format: biochemical; conditions: 100,000×g supernatant of RBL-1 homogenate, [1-14C]-arachidonic acid and Ca++; average; read-out: average IC50, inhibition of 5-lipoxygenase (5-HETE synthesis)
T1 construct: supernatant fraction of Rat Basophilic Leukemia Cell Homogenate (RBL-1) serves as a 5-lipoxygenase enzyme source; endogenous in cells; host or cells: RBL-1 (rat basophilic leukemia) cells, 100,000×g supernatant of homogenate
T1 sequence (P12527 1-673): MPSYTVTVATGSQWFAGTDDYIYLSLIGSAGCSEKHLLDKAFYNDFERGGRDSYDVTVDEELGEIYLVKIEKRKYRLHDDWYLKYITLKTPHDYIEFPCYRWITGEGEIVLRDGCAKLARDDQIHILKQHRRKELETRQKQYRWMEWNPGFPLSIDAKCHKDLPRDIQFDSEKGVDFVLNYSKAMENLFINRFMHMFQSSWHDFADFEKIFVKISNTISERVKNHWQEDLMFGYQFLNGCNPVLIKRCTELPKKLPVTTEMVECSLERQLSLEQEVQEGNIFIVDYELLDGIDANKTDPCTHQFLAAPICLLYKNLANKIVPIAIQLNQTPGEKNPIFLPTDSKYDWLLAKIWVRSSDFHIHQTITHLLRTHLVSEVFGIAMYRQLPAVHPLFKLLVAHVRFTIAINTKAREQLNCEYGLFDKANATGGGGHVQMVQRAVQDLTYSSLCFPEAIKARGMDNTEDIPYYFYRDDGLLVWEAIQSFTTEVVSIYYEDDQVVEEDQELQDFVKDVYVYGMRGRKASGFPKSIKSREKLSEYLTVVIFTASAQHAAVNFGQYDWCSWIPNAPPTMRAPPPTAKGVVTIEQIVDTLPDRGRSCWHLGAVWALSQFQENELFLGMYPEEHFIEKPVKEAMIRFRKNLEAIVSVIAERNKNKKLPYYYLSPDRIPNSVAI
Method: The compounds of the invention are evaluated with respect to 5-lipoxygenaseinhibition according to the following assay procedure.
The 100,000×g supernatant fraction of Rat Basophilic Leukemia Cell Homogenate (RBL-1) serves as a 5-lipoxygenase enzyme source. The enzyme is incubated with [1-^14 C)-arachidonic acid and Ca++ in the presence and absence of test compound. The product of 5-lipoxygenase, 5-hydroxyeicosa-tetraenoic acid (5-HETE), is separated by thin-layer chromatography and measured by radioactivity. A compound inhibiting 5-HETE synthesis by 30% or more is considered active at that concentration.

[2] = compared with histamine; background information; cited from earlier work

IC50 [1]	IC50 (5-lipoxygenase)	SMILES	potency in causing long lasting bronchoconstricting effects relative to histamine [2]
87.5 µM	3.25 µM	C[C@H](Sc1cc(C(C)(C)C)c(O)c(C(C)(C)C)c1)[C@@H](C)OCC(=O)NCCS(=O)(=O)O (relative stereo) [Example 5, 2-[[[2S*-[[3,5-bis(1,1-dimethylethyl)-4-hydroxyphenyl]thio]-1R*-methylpropoxy]acetyl]amino]ethanesulfonic acid, potassium salt]	–
–	–	CCCCC/C=C\C\C=C/C=C/C=C/[C@@H](SC[C@H](NC(=O)CC[C@H](N)C(=O)O)C(=O)NCC(=O)O)[C@@H](O)CCCC(=O)O [LTC4]	at least 100 times
